In patent publication US8569270B2, “Diphenyl sulfide derivatives and medicines containing same as active ingredient” (Kyorin Pharmaceutical Co., Ltd., priority 2009, dated 2013):
pKd: −log10 of the molar value.

Key:
Human S1P3 receptor = biological target: T1, Human S1P3 receptor (Homo sapiens, UniProt Q99500); assay: Suppression of S1P-induced cellular calcium mobilization in human S1P3 receptor-expression CHO cells (Schild plot); type: cell-based; conditions: Schild plot of S1P EC50 shift; test compound 125 nM, 1.25 μM, 12.5 μM; hS1P3 CHO cells; read-out: S1P3 dissociation constant Kd value
T1 construct: expressed in transfected cells; host or cells: CHO cells (Geneticin-selected)
T1 sequence (Q99500 whole entry): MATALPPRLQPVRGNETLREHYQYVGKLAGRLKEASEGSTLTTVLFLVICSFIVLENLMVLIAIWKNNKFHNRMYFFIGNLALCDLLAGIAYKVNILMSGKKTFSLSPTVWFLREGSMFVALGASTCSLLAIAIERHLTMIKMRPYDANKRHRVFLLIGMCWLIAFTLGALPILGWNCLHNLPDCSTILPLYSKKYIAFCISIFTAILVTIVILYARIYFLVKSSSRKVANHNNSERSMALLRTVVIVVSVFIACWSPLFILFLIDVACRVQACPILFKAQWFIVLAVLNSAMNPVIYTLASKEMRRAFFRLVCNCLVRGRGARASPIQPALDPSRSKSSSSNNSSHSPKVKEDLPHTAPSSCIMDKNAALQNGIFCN
Description: Suppression Effect of Test Compound Against Cellular Calcium Mobilization of Human S1P3 Receptor-Expression Cell by S1P (Sphingosine 1-Phosphoric Acid)
Human S1P3 receptor-expression CHO cells were subcultured in a Ham's F-12 culture medium containing 10% fetal bovine serum, and 300 μg/mL of Geneticin. The human S1P3 receptor-expression CHO cells were subjected to 0.25% trypsinization, then recovered from the dish, and floated in a Ham's F-12 culture medium containing 10% fetal bovine serum, and 300 μg/mL of Geneticin. After that, the human S1P3 receptor-expression CHO cells were disseminated into a 96-well black clear bottom plate (BD Falcon Biocoat) so that 7×10^4/100 μL/well of the human S1P3 receptor-expression CHO cells were disseminated. And then, the human S1P3 receptor-expression CHO cells were cultivated for one night at 37° C. under 5% CO2. The next day, the wells were washed 3 times with 100 μL of PBS containing 0.1% fatty acid-free bovine serum albumin (BSA). The culture medium was exchanged with a Ham's F-12 culture medium containing 0.1% BSA, and then starved of serum for 6 hours in an CO2 incubator at 37° C.
The culture medium was thrown away after the 6 hours. Then, 50 μL/well of a Fluo3 loading buffer was added, and the cultures were cultivated for further 1 hour. The Fluo3 loading buffer was prepared as follows. First, equal amounts of Fluo3-AM (Dojindo) and pluronic F-127 (20% DMSO solution, invitrogen) were mixed. Next, the mixture of Fluo3-AM and pluronic F-127 was added to a Hanks-HEPES buffer (balanced salt solution containing 20 mM HEPES (pH, 7.4), 0.1% BSA (fatty acid-free), and 2.5 mM probenecid) to form a Fluo3 loading buffer having a final Fluo3-AM concentration of 4
After incubating for 1 hour, the cultures were washed 3 times with 100 μL of the Hanks-HEPES buffer. Then, 100 μL of the same buffer in which a test compound (125 nM, 1.25 μM, 12.5 μM) or DMSO had been dissolved was added to the cultures, and then incubated for 30 minutes at 37° C. in a microplate spectrophotofluorometer (FLEX Station) (Molecular Device Co., Ltd.). Then, 25 μL of S1P prepared at 5 times the concentration of the final concentration by serial dilution (final concentration of 0.1 nM, 1 nM, 10 nM, 100 nM, and 1 μM) was added, and the fluorescence based on the Fluo3 due to calcium mobilization was detected and measured at an excitation wavelength of 485 nm and a detection wavelength of 525 nm using the same apparatus. Based on the measurement data, the increase in fluorescence was calculated by subtracting the minimum fluorescence intensity from the maximum fluorescence intensity. The measured increase in fluorescence was used to perform a curve approximation of the relationship between the S1P concentration and the increase in fluorescence using PRISM 4 software (GraphPad). Based on the results, the EC50 value of the compound-untreated and the EC50 value of the compound-treated at each concentration were calculated. Schild Plot analysis was performed based on these values to determine dissociation constant Kd value. In Table 1, 1,000 nmol/L>Kd value≧100 nmol/L is indicated as “+,” 100 nmol/L>Kd value≧10 nmol/L is indicated as “++,” 10 nmol/L>Kd value≧1 nmol/L is indicated as “+++,” and 1 nmol/L>Kd value is indicated as “++++.”

IL-1β production = assay: LPS induced sepsis model, IL-1β in tissue by ELISA; type: in vivo, C57BL/6J mouse; conditions: 10 mg/kg i.v. twice (15 min before and 2 h after LPS), 18 h after LPS; for Suppression Rate for Lung: mouse lung; for Suppression Rate for Mesenteric Lymph Nodes: mouse mesenteric lymph nodes
Description: The experiment was carried out with reference to the method described in Non-Patent Literature 5 (F. Nissen et al., Nature, 452, 654 (2008)). A solution of 1 mg/ml LPS (lipopolysaccharide) in physiological saline was intraperitoneally administered (10 ml/kg) to a C57BL/6J mouse (Charles River, male, 7 to 8 weeks). The test compound in an amount of 10 mg/kg was intravenously administered twice, 15 minutes before LPS administration and 2 hours after LPS administration. The mouse was dissected 18 hours after LPS administration, and the mesenteric lymph nodes and lungs were excised. The mesenteric lymph nodes were dissolved in 200 μl and the lungs in 1 ml of a dissolving buffer (30 mM Tris (pH7.4), 150 mM NaCl, 0.1% TritonX-100, 2 mM CaCl2, and 2 mM MgCl2). Non-dissolved matter was removed by centrifugal separation. The IL-1β in the tissue solutions was measured using an IL-1β ELISA Kit (Thermo Co., Ltd.). In Table 2, compounds having a suppression rate of 50% or more are indicated as “+++,” compounds having a suppression rate of 50%>suppression rate≧30% are indicated as “++,” and compounds having a suppression rate of 30%>suppression rate 20% are indicated as “+.”
The suppression rate was calculated using the following calculation equation. a=(1−X/Y)×100 [Equation 1] X: IL-1β PRODUCTION AMOUNT WHEN, 10 mg/kg OF TEST COMPOUND WAS ADMINISTERED TO RESPECTIVE TISSUE Y: IL-1β PRODUCTION AMOUNT WHEN TEST COMPOUND WAS NOT ADMINISTERED TO RESPECTIVE TISSUE a: SUPPRESSION RATE (%)

SMILES | pKd (Human S1P3 receptor) | Suppression Rate for Lung (IL-1β production) | Suppression Rate for Mesenteric Lymph Nodes (IL-1β production)
CCc1ccc(O)c(Sc2ccc(CC[C@](C)(N)COP(=O)(O)O)c(Cl)c2)c1 [Example 2, (S)-2-amino-4-[2-chloro-4-(5-ethyl-2-hydroxyphenylthio)phenyl]-2-methylbutylphosphoric acid monoester] | 7.00 to 8.00 |  | 
C[C@](N)(CCc1ccc(Sc2cc(C3CC3)ccc2O)cc1Cl)COP(=O)(O)O [Example 5, (S)-2-amino-4-[2-chloro-4-(5-cyclopropyl-2-hydroxyphenylthio)phenyl]-2-methylbutylphosphoric acid monoester] | 8.00 to 9.00 |  | 
COc1ccc(O)c(Sc2ccc(CC[C@](C)(N)COP(=O)(O)O)c(Cl)c2)c1 [Example 6, (S)-2-amino-4-[2-chloro-4-(2-hydroxy-5-methoxyphenylthio)phenyl]-2-methylbutylphosphoric acid monoester] | 6.00 to 7.00 |  | 
CCOc1ccc(O)c(Sc2ccc(CC[C@](C)(N)COP(=O)(O)O)c(Cl)c2)c1 [Example 7, (S)-2-amino-4-[2-chloro-4-(5-ethoxy-2-hydroxyphenylthio)phenyl]-2-methylbutylphosphoric acid monoester] | 7.00 to 8.00 |  | 
CC(C)Oc1ccc(O)c(Sc2ccc(CC[C@](C)(N)COP(=O)(O)O)c(Cl)c2)c1 [Example 8, (S)-2-amino-4-[2-chloro-4-(2-hydroxy-5-isopropoxyphenylthio)phenyl]-2-methylbutylphosphoric acid monoester] | 7.00 to 8.00 |  | 
C[C@](N)(CCc1ccc(Sc2cc(OCc3ccccc3)ccc2O)cc1Cl)COP(=O)(O)O [Example 9, (S)-2-amino-4-[4-(5-benzyloxy-2-hydroxyphenylthio)-2-chlorophenyl]-2-methylbutylphosphoric acid monoester] | 8.00 to 9.00 |  | 
C[C@](N)(CCc1ccc(Sc2cc(Cl)ccc2O)cc1Cl)COP(=O)(O)O [Example 10, (S)-2-amino-4-[2-chloro-4-(5-chloro-2-hydroxyphenylthio)phenyl]-2-methylbutylphosphoric acid monoester] | 7.00 to 8.00 |  | 
C[C@](N)(CCc1ccc(Sc2cc(C(F)(F)F)ccc2O)cc1Cl)COP(=O)(O)O [Example 11, (S)-2-amino-4-[2-chloro-4-(2-hydroxy-5-trifluoromethylphenylthio)phenyl]-2-methylbutylphosphoric acid monoester] | 8.00 to 9.00 | ++ (50%>suppression rate≧30%) | ++ (50%>suppression rate≧30%)
C=CC[C@](N)(CCc1ccc(Sc2cc(C(F)(F)F)ccc2O)cc1Cl)COP(=O)(O)O [Example 12, (R)-2-allyl-2-amino-4-[2-chloro-4-(2-hydroxy-5-trifluoromethylphenylthio)phenyl]-butylphosphoric acid monoester] | > 9.00 | ++ (50%>suppression rate≧30%) | + (30%>suppression rate 20%)
C[C@](N)(CCc1ccc(Sc2ccccc2O)cc1Cl)COP(=O)(O)O [Example 14, (S)-2-amino-4-[2-chloro-4-(2-hydroxyphenylthio)phenyl]-2-methylbutylphosphoric acid monoester] | 7.00 to 8.00 |  | 
CC(=O)c1ccc(O)c(Sc2ccc(CC[C@](C)(N)COP(=O)(O)O)c(Cl)c2)c1 [Example 16, (S)-4-[4-(5-acetyl-2-hydroxyphenylthio)-2-chlorophenyl]-2-amino-2-methylbutylphosphoric acid monoester] | 7.00 to 8.00 |  | 
CCCc1ccc(O)c(Sc2ccc(CC[C@@](N)(CCC)COP(=O)(O)O)c(Cl)c2)c1 [Example 18, (S)-2-amino-4-[2-chloro-4-(2-hydroxy-5-propylphenylthio)phenyl]-2-propylbutylphosphoric acid monoester] | 8.00 to 9.00 |  | 
CCC[C@](N)(CCc1ccc(Sc2cc(C(C)C)ccc2O)cc1Cl)COP(=O)(O)O [Example 19, (S)-2-amino-4-[2-chloro-4-(2-hydroxy-5-isopropylphenylthio)phenyl]-2-propylbutylphosphoric acid monoester] | 8.00 to 9.00 |  | 
CCC[C@](N)(CCc1ccc(Sc2cc(C3CC3)ccc2O)cc1Cl)COP(=O)(O)O [Example 20, (S)-2-amino-4-[2-chloro-4-(5-cyclopropyl-2-hydroxyphenylthio)phenyl]-2-propylbutylphosphoric acid monoester] | 8.00 to 9.00 |  | 

Further lines, with some results ahead:

pKd (Human S1P3 receptor) | SMILES | Suppression Rate for Lung (IL-1β production) | Suppression Rate for Mesenteric Lymph Nodes (IL-1β production)
7.00 to 8.00 | Cc1ccc(O)c(Sc2ccc(CC[C@](C)(N)COP(=O)(O)O)c(Cl)c2)c1 [Example 1, (S)-2-amino-4-[2-chloro-4-(2-hydroxy-5-methylphenylthio)phenyl]-2-methylbutylphosphoric acid monoester] |  | 
7.00 to 8.00 | CCCc1ccc(O)c(Sc2ccc(CC[C@](C)(N)COP(=O)(O)O)c(Cl)c2)c1 [Example 3, (S)-2-amino-4-[2-chloro-4-(2-hydroxy-5-propylphenylthio)phenyl]-2-methylbutylphosphoric acid monoester] |  | 
8.00 to 9.00 | CC(C)c1ccc(O)c(Sc2ccc(CC[C@](C)(N)COP(=O)(O)O)c(Cl)c2)c1 [Example 4] |  | 
6.00 to 7.00 | C[C@](N)(CCc1ccc(Sc2cc(C(F)(F)F)ccc2O)cc1Cl)CCP(=O)(O)O [Example 17, (S)-3-amino-5-[2-chloro-4-(2-hydroxy-5-trifluoromethylphenylthio)phenyl]-3-methylpentylphosphonic acid] |  | 
> 9.00 | CCC[C@](N)(CCc1ccc(Sc2cc(C(C)(C)C)ccc2O)cc1Cl)COP(=O)(O)O [Example 21, (S)-2-amino-4-[4-(5-t-butyl-2-hydroxyphenylthio)-2-chlorophenyl]-2-propylbutylphosphoric acid monoester] |  | 
8.00 to 9.00 | CCC[C@](N)(CCc1ccc(Sc2cc(OCc3ccccc3)ccc2O)cc1Cl)COP(=O)(O)O [Example 23, (S)-2-amino-4-[4-(5-benzyloxy-2-hydroxyphenylthio)-2-chlorophenyl]-2-propylbutylphosphoric acid monoester] |  | 
